Reference: US20100292085A1, “Methods and compositions for characterization of HSD1 inhibitors” (priority 2005, published 2010)

Legend:
HepG2/HSD1 cells [1] = assay: Off-target effects by microarray: number of genes changed, no cortisone; type: cell-based, human; conditions: number of genes changed vs forskolin alone
Description: (§1) Total RNA isolated from cultured cell samples was used to make fluorescently labeled cRNA that was hybridized to DNA oligonucleotide microarrays as described previously (Hughes et al., supra., Marton et al., 1998, Nat. Med. 4:1293-301). Briefly, 4 μg of total RNA from each cell culture sample was used to synthesize dsDNA through RT. cRNA was produced by in vitro transcription and labeled postsynthetically with Cy3 or Cy5. Two populations oflabeled cRNA, a control population from vehicle/forskolin treated cells and an experimental population, i.e., cortisone/forskolin plus vehicle or plus HSD1 test compound, were compared with each other by competitive hybridization to microarrays. Two hybridizations were done with each cRNA sample pair using a fluorescent dye reversal strategy.
The human microarrays used in this study contained 23,653 oligonucleotide probes corresponding to individual genes or expressed sequence tags. […]
(§2) After hybridization, arrays were scanned and fluorescence intensities for each probe were recorded. […] For each gene sequence present on the microarrays, statistical significance of differential gene expression was determined by calculating P values according to the following equation: […]
HSD1 compounds were evaluated using microarray gene expression measurements obtained from HepG2/HSD1 cells under conditions where the cells were not treated with cortisone. […]

SCD = assay: Off-target activity by SCD expression level (microarray); type: cell-based, human; conditions: HepG2/HSD1 cells, 10 μM forskolin, no cortisone, vs forskolin alone; microarray probe
Description: as §1
Each HSD1 inhibitor compound treated sample was compared to a forskolin alone cell sample. The HepG2/HSD1 cells used in these experiments were not contacted with cortisone.

[2] = test system: off-target signature genes (SCD, DHCR7, ACLY, FBXO9, HEY1); assay: Off-target signature genes measured by RT-PCR (TAQman) in HepG2/HSD1 cells; type: cell-based, human
Description: HepG2 cells stably transfected with human HSD1, as previously described in Example 1, were plated in either 96 well or 24 well tissue culture plates. Cells were plated at a density of 6.25×10^5 cells/well on 24 well plates in 500 μl DMEM culture medium prepared as previously described. For the 96 well plates, the cells were plated at a density of 1×10^5 cells per well in 100 μl culture medium. The cells were incubated at 37° C. in a 5% CO2 atmosphere. After 24 hours, the culture medium was removed and the cells were pre-incubated with, either 250 μl (24 well plate) or 50 μl (96 well plate), Culture Medium containing 2× concentration of HSD1 inhibitor (14 μM) or vehicle for 20 min at 37° C. in a 5% CO2 atmosphere. Culture Medium (either 250 μl or 50 μl) containing 1000 nM cortisone (500 nM final concentration) or vehicle, and 20 μM forskolin (10 μM final concentration), was next added to the cells. The cells were further incubated for 20 hrs at 37° C. in a 5% CO2 atmosphere. […]
Oligonucleotide probes were labeled with the 6-FAM fluorophore at the 5′ end (FAM) and a non-fluorescent quencher at the 3′ end (NFQ). […] The levels of mRNA were normalized to the amount of 18S RNA detected in each sample using the Eukaryotic 18S rRNA Endogenous Control from Applied Biosystems. Levels of the target mRNAs in treated cells were calculated relative to the untreated cells.

HepG2/HSD1 cells [3] = assay: Identification of the off-target response signature by microarray (Table 6); type: cell-based, human
Description: This off-target gene signature was not detected in other active HSD1 inhibitor compounds with in vivo efficacy. Monitoring for the off-target signature identified by 3-(2-chlorophenyl)-4-methyl-5-(4-pentylbicyclo[2.2.2]oct-1-yl)-4H-1,2,4-triazole in the HepG2 cells over-expressing HSD1 can improve characterization and selection of candidate HSD1 compounds prior to in vivo efficacy testing.
as §1, with “strategy. […]” for “strategy.”

HSD1 [4] = target: T1, HSD1 (Homo sapiens, UniProt P28845); assay: In vivo efficacy of HSD1 inhibitor; set-up: host or cells: in vivo
HSD1 [5] = target: T1, HSD1; assay: HSD1 signature reversal activity: microarray of cortisone signature genes in HepG2/HSD1 cells; type: cell-based; set-up: expressed in transfected cells; conditions: slope of linear regression vs cortisone treatment alone (1.0 = no inhibition), Table 2 genes, 500 nM cortisone, 10 μM forskolin, inhibitor added as 2× concentration (14 μM), 20 hrs
Description: HepG2 human hepatoma cells stably transfected with human 11βHSD1 (HepG2/HSD1 cells) were plated at 2×10^6 cells per well on 6-well plates in 1 ml Culture Medium (DMEM with 2 mM L-Glutamine, 10% charcoal-dextran-treated FBS, 100 U/ml Penicillin, 100 μg/ml streptomycin, 10 μM sodium pyruvate, 100 μM non-essential amino acids, 0.003 N NaOH) at 37° C./5% CO2. After 24 hours, the Culture Medium was replaced with 500 μl Culture Medium containing 1000 nM cortisone (500 nM final concentration) and 20 μM forskolin (10 μM final concentration). The cells were incubated for 20 hrs at 37° C./5% CO2. Samples were run in triplicates. […]
as §2
Gene expression changes in the cortisone signature genes were analyzed to further assess the degree to which HSD1-agents cause a reversal in the magnitude of the cortisone signature due to the degree of inhibition of HSD1 activity. Gene expression levels of the cortisone signature genes were measured in cortisone treated HepG2/HSD1 cells and HepG2/HSD1 cells treated with an HSD1-agent affecting HSD1 activity. […]

HSD1 [6] = target: T1, HSD1; assay: Direct measurement of HSD1 activity: 3H-cortisone conversion to cortisol by HPLC; type: cell-based; set-up: expressed in transfected cells
Description: Oxidoreductase Method: [1,2-^3H]-cortisone (48.7 Ci/mmol) was added to a final concentration of 20 nM to HepG2/HSD1 (2×10^6 cells/well in 6-well plates) and incubated for 1.5, 3, 6 and 22 hrs at 37° C. in culture medium (Dulbecco's Modified Eagle Medium with high glucose containing 2 mM L-glutamine, 10% fetal bovine serum, 100 U/ml penicillin, 100 μg/ml Streptomycin, 10 μM sodium pyruvate, 100 μM non-essential amino acids, 0.003 N NaOH and 0.8 mg/ml Geneticin). The samples (100 μl aliquots) were then extracted with 300 μl ethyl acetate and the upper, organic phases were dried. The dried organic extracts were then resuspended either in 100 μl DMSO for analysis by reverse-phase HPLC (buffer A=10% methanol/90% water; buffer B=90% methanol/10% water using a gradient from 20-45% Buffer B; YMC Combiscreen Pro C18 50 mm×4.6 mm column; flow rate 2.5 mL/min).
HSD1 activity was measured by spiking the incubation medium with ^3H-cortisone. After 21 hrs post compound treatment, conversion of the cortisone to cortisol was assessed by HPLC analysis.

HSD1 [7] = target: T1, HSD1; assay: Cortisone signature genes measured by RT-PCR (TAQman) in HepG2/HSD1 cells; type: cell-based; set-up: expressed in transfected cells
Description: HepG2 cells stably transfected with human HSD1, as previously described in Example 1, were plated in either 96 well or 24 well tissue culture plates. Cells were plated at a density of 6.25×10^5 cells/well on 24 well plates in 500 μl DMEM culture medium prepared as previously described. For the 96 well plates, the cells were plated at a density of 1×10^5 cells per well in 100 μl culture medium. The cells were incubated at 37° C. in a 5% CO2 atmosphere. After 24 hours, the culture medium was removed and the cells were pre-incubated with, either 250 μl (24 well plate) or 50 μl (96 well plate), Culture Medium containing 2× concentration of HSD1 inhibitor (14 μM) or vehicle for 20 min at 37° C. in a 5% CO2 atmosphere. Culture Medium (either 250 μl or 50 μl) containing 1000 nM cortisone (500 nM final concentration) or vehicle, and 20 μM forskolin (10 μM final concentration), was next added to the cells. The cells were further incubated for 20 hrs at 37° C. in a 5% CO2 atmosphere. All conditions were run in duplicates.
HepG2/HSD1 cells were lysed using Trizol reagent (Life Technologies, Grand Island, N.Y.). Total RNA was isolated from HepG2/HSD1 lysate using the RNeasy 96-Kit (Qiagen Inc., Valencia, Calif.) following the manufacturer's instructions, including the optional on-column removal of contaminating DNA step by RNase-free DNase I treatment. The RNA was reverse-transcribed to single stranded cDNA using random hexamer primers with TAQman reverse transcription reagents (Applied Biosystems, Foster City, Calif.).
The sequences of the TAQman primers and probes used to detect the target cDNAs were synthesized by Qiagen Operon (Alameda, Calif.) and are shown in Tables 8 and 9.
Oligonucleotide probes were labeled with the 6-FAM fluorophore at the 5′ end (FAM) and a non-fluorescent quencher at the 3′ end (NFQ). Real-time PCR was performed on human HepG2/HSD1 cDNA using the TaqMan Universal PCR Master Mix (Applied Biosystems, Foster City, Calif.) and appropriate primer/probe sets on an ABI Prism 7900HT Sequence Detection System (Applied Biosystems, Foster City, Calif.) in the 384-well format according to manufacturer's instructions. The levels of mRNA were normalized to the amount of 18S RNA detected in each sample using the Eukaryotic 18S rRNA Endogenous Control from Applied Biosystems. Levels of the target mRNAs in treated cells were calculated relative to the untreated cells.

[8] = RT-PCR, 500 nM cortisone + 10 μM forskolin, 20 hrs, inhibitor added as 2× concentration (14 μM)

T1 sequence (P28845 whole entry): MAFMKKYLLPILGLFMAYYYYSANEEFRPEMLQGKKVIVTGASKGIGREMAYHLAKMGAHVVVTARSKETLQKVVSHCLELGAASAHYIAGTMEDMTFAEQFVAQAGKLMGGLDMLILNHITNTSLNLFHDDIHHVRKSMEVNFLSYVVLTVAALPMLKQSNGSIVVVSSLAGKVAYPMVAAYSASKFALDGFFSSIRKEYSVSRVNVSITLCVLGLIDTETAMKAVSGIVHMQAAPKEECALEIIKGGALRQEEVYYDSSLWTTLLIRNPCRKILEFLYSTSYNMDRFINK

- HSD1 Signature Reversal Activity Values (HSD1 [5]): 0.03
- Percent Conversion to Cortisol (HSD1 [6]; 3H-cortisone spiked medium, 21 hrs post compound treatment, cortisone/forskolin, HPLC): 2%
- Percent Conversion to Cortisol normalized to cortisone/forskolin value (HSD1 [6]; value in square brackets, cortisone/forskolin alone = 1.0): 0.05
- G6PC Gene Transcript (Fold Change Relative to Vehicle Alone) (HSD1 [7]; [8]): 1.0 Fold Change
- Homer-2 Gene Transcript (Fold Change Relative to Vehicle Alone) (HSD1 [7]; [8]): 1.5 Fold Change
- LIPG Gene Transcript (Fold Change Relative to Vehicle Alone) (HSD1 [7]; [8]): 2.7 Fold Change
- PGC Gene Transcript (Fold Change Relative to Vehicle Alone) (HSD1 [7]; [8]): 0.7 Fold Change
- TAT Gene Transcript (Fold Change Relative to Vehicle Alone) (HSD1 [7]; [8]): 1.2 Fold Change
- Average of five genes (cortisone signature, Fold Change Relative to Vehicle Alone) (HSD1 [7]; average of Homer-2, G6PC, PGC, TAT, LIPG): 1.4 Fold Change
Compound: CCCCCC12CCC(c3nnc(-c4ccccc4Cl)n3C)(CC1)CC2 [3-(2-chlorophenyl)-4-methyl-5-(4-pentylbicyclo[2.2.2]oct-1-yl)-4H-1,2,4-triazole]
- off-target activity (in words, from Table 5 microarray data) (HepG2/HSD1 cells [1]): high levels of off-target activity
- Log ratio of SCD gene expression (SCD): 0.45
- Average of five genes (off-target signature, Fold Change Relative to Vehicle Alone) [2]: 1.7 Fold Change
- off-target signature (Table 6) in HepG2 cell line over-expressing HSD1 (in words) (HepG2/HSD1 cells [3]; independent of cortisone treatment): exhibited off-target activity
- off-target response signature, number of gene markers (HepG2/HSD1 cells [3]; p-value<0.01, no fold change cut-off, common to three replicate studies, compound + forskolin): 330
- efficacy in vivo (in words) (HSD1 [4]): failed to achieve significant efficacy in vivo
